Assay results reported in article PMC6271228, “Diethyl 2-(Phenylcarbamoyl)phenyl Phosphorothioates: Synthesis, Antimycobacterial Activity and Cholinesterase Inhibition” (Molecules, 2014).
Values after ≈ are worked out from the molar mass of the structure shown. Like-named read-outs stand apart in the source and are kept apart here.

Columns and labels:
[1] = system: Mycobacterium tuberculosis My 331/88 (H37Rv); assay: microbe, parasite or virus in culture; assay type: cell-based
M. avium My 330/88 = assay: microbe, parasite or virus in culture; assay type: cell-based, Mycobacterium avium; conditions: for MIC: Mycobacterium avium, 37 °C; for MIC values against M. avium: all MIC values (14 and 21 d)
M. kansasii My 235/80 = assay: microbe, parasite or virus in culture; assay type: cell-based, Mycobacterium kansasii; conditions: for MIC: Mycobacterium kansasii, 37 °C; for MICs for M. kansasii 235/80: all time points
[2] = system: M. kansasii 6509/96 (clinically isolated); assay: microbe, parasite or virus in culture; assay type: cell-based; conditions: Mycobacterium kansasii, 37 °C
AChE from electric eel = target: T1, AChE from electric eel (Electrophorus electricus, UniProt O42275); assay: AChE inhibition, modified Ellman's method; assay type: biochemical, Electrophorus electricus L.
T1 construct: Acetylcholinesterase was obtained from electric eel (Electrophorus electricus L.); from tissue; host or cells: electric eel (Electrophorus electricus L.)
T1 sequence (O42275 24-633): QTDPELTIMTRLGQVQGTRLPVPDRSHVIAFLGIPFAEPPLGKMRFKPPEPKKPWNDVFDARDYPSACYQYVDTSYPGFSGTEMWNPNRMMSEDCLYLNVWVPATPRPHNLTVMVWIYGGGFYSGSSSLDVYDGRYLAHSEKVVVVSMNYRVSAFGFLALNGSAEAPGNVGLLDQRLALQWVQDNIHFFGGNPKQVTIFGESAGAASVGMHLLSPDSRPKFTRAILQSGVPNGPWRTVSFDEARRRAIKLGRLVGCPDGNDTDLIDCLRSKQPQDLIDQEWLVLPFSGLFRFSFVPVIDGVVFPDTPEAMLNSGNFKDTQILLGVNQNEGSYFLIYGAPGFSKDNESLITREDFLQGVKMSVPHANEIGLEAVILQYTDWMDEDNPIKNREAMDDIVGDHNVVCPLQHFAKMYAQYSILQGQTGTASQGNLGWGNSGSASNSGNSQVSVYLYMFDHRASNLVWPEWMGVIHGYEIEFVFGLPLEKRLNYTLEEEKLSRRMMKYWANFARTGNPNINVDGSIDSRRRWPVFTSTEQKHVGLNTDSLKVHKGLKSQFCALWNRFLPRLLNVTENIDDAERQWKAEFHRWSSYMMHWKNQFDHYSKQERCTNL
Text: (§1) The ability of the tested compounds to inhibit AChE from electric eel (Electrophorus electricus L.) and BChE from equine serum was screened in vitro using modified Ellman’s method for the evaluation of cholinesterase activity. […] […]. These two standards were chosen due to their different structures. […]. The choice of these drugs with different mechanism of action can provide relevant results. All tested compounds expressed a good inhibitory activity with IC50s in low micromolar values.
(§2) The IC50 values were determined using the spectrophotometric Ellman’s method, which is a simple, rapid and direct method to determine the SH and -S-S- group content in proteins. This method is widely used for cholinesterase activity evaluation and screening of the efficiency of cholinesterase inhibitors. Cholinesterase activity is measured indirectly by quantifying the concentration of 5-thio-2-nitrobenzoic acid (TNB) ion formed in the reaction between the thiol reagent 5,5'-dithiobis-2-nitrobenzoic acid (DTNB) and thiocholine, a product of substrate hydrolysis by cholinesterase (i.e., acetylthiocholine, ATCh). All the tested compounds were dissolved in dimethyl sulfoxide (concentration 0.01 M) and then diluted in demineralised water (concentration 0.001 M and 0.0001 M). The Ellman’s method is slightly modified according to Zdrazilova et al.. Acetylcholinesterase was obtained from electric eel (Electrophorus electricus L.) and butyrylcholinesterase from equine serum.

BChE from equine serum = target: T2, BChE from equine serum (Equus caballus, UniProt P81908); assay: BChE inhibition, modified Ellman's method; assay type: biochemical
T2 construct: butyrylcholinesterase from equine serum; from tissue; host or cells: equine serum
T2 sequence (P81908 whole entry): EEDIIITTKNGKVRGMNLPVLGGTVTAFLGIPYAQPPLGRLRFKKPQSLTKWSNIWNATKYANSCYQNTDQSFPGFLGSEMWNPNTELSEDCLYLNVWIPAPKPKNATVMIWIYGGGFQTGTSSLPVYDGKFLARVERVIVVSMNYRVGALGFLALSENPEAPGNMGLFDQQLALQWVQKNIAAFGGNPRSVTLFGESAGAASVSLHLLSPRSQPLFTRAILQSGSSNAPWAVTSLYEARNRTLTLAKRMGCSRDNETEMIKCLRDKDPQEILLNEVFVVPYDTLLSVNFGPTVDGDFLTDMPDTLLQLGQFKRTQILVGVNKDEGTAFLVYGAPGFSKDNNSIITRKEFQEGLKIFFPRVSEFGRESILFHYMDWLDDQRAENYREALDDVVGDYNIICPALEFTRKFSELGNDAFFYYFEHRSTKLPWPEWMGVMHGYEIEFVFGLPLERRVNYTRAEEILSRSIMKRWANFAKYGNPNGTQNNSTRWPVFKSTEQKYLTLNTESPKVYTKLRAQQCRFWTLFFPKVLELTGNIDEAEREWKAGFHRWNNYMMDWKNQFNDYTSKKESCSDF
Text: as §1, §2

[3] = system: nontuberculous mycobacteria (M. avium and M. kansasii); assay: microbe, parasite or virus in culture; assay type: cell-based; conditions: Mycobacterium avium, M. avium and M. kansasii strains; read-out: MIC values against nontuberculous mycobacteria
[4] = 336 h, 14 d, 37 °C, read-out: MIC Mtb 331/88 (H37Rv) 14 d
[5] = 504 h, 21 d, 37 °C, read-out: MIC Mtb 331/88 (H37Rv) 21 d
[6] = MY330/88, 336 h, 14 d, read-out: MIC M. avium 330/88 14 d
[7] = MY330/88, 504 h, 21 d, read-out: MIC M. avium 330/88 21 d
[8] = MY235/80, 168 h, 7 d, read-out: MIC M. kansasii 235/80 7 d
[9] = MY235/80, 336 h, 14 d, read-out: MIC M. kansasii 235/80 14 d
[10] = MY235/80, 504 h, 21 d, read-out: MIC M. kansasii 235/80 21 d
[11] = 168 h, 7 d, read-out: MIC M. kansasii 6509/96 7 d
[12] = 336 h, 14 d, read-out: MIC M. kansasii 6509/96 14 d
[13] = 504 h, 21 d, read-out: MIC M. kansasii 6509/96 21 d

Compound | MIC [1, 4] [µM] | MIC [1, 5] [µM] | MIC (M. avium My 330/88; [6]) [µM] | MIC (M. avium My 330/88; [7]) [µM] | MIC (M. kansasii My 235/80; [8]) [µM] | MIC (M. kansasii My 235/80; [9]) [µM] | MIC (M. kansasii My 235/80; [10]) [µM] | MIC [2, 11] [µM] | MIC [2, 12] [µM] | MIC [2, 13] [µM] | IC50 (AChE from electric eel) [µM] | IC50 (BChE from equine serum) [µM] | MIC ([1]; read-out: MIC against Mtb) [µM] | MIC values against M. avium (M. avium My 330/88) [µM] | MICs for M. kansasii 235/80 (M. kansasii My 235/80) [µM] | MIC [3] [µM]
CCOP(=S)(OCC)Oc1ccc(Cl)cc1C(=O)Nc1cccc(F)c1 [1o, O-{4-Chloro-2-[(3-fluorophenyl)carbamoyl]phenyl} O,O-diethyl phosphorothioate] | 32 (≈ 13.4 µg/mL) | 32 (≈ 13.4 µg/mL) | 500 (≈ 209 µg/mL) | 500 (≈ 209 µg/mL) | 250 (≈ 104 µg/mL) | 500 (≈ 209 µg/mL) | > 500 | 250 (≈ 104 µg/mL) | 500 (≈ 209 µg/mL) | 500 (≈ 209 µg/mL) | 9.94 ± 0.2 | 11.8 ± 0.6 |  |  |  | 
CCOP(=S)(OCC)Oc1ccc(Cl)cc1C(=O)Nc1ccc(F)cc1 [1p, O-{4-Chloro-2-[(4-fluorophenyl)carbamoyl]phenyl} O,O-diethyl phosphorothioate] | 16 (≈ 6.69 µg/mL) | 16 (≈ 6.69 µg/mL) | 500 (≈ 209 µg/mL) | 500 (≈ 209 µg/mL) | 250 (≈ 104 µg/mL) | 500 (≈ 209 µg/mL) | > 500 | 125 (≈ 52.2 µg/mL) | 250 (≈ 104 µg/mL) | 500 (≈ 209 µg/mL) | 13.6 ± 1.1 | 14.9 ± 0.8 |  |  |  | 
CCOP(=S)(OCC)Oc1ccc(Cl)cc1C(=O)Nc1cccc(C(F)(F)F)c1 [1q, O-(4-Chloro-2-{[3-(trifluoromethyl)phenyl]carbamoyl}phenyl) O,O-diethyl phosphorothioate] | 8 (≈ 3.74 µg/mL) | 8 (≈ 3.74 µg/mL) | 500 (≈ 234 µg/mL) | > 500 | 125 (≈ 58.5 µg/mL) | 500 (≈ 234 µg/mL) | > 500 | 125 (≈ 58.5 µg/mL) | 500 (≈ 234 µg/mL) | 500 (≈ 234 µg/mL) | 12.1 ± 0.2 | 19.9 ± 0.2 | 8 (≈ 3.74 µg/mL) |  |  | 
CCOP(=S)(OCC)Oc1ccc(Cl)cc1C(=O)Nc1ccc(C(F)(F)F)cc1 [1r, O-(4-Chloro-2-{[4-(trifluoromethyl)phenyl]carbamoyl}phenyl) O,O-diethyl phosphorothioate] | 8 (≈ 3.74 µg/mL) | 8 (≈ 3.74 µg/mL) | 500 (≈ 234 µg/mL) | 500 (≈ 234 µg/mL) | 62.5 (≈ 29.2 µg/mL) | 125 (≈ 58.5 µg/mL) | 250 (≈ 117 µg/mL) | 62.5 (≈ 29.2 µg/mL) | 125 (≈ 58.5 µg/mL) | 250 (≈ 117 µg/mL) | 9.7 ± 0.18 | 15.6 ± 0.7 | 8 (≈ 3.74 µg/mL) |  |  | 
CCOP(=S)(OCC)Oc1cc(Cl)ccc1C(=O)Nc1cccc(Cl)c1 [1s, O-{5-Chloro-2-[(3-chlorophenyl)carbamoyl]phenyl} O,O-diethyl phosphorothioate] | 16 (≈ 6.95 µg/mL) | 32 (≈ 13.9 µg/mL) | 125 (≈ 54.3 µg/mL) | 125 (≈ 54.3 µg/mL) | 32 (≈ 13.9 µg/mL) | 125 (≈ 54.3 µg/mL) | 125 (≈ 54.3 µg/mL) | 32 (≈ 13.9 µg/mL) | 62.5 (≈ 27.1 µg/mL) | 125 (≈ 54.3 µg/mL) | 9.79 ± 0.2 | 12.5 ± 0.1 |  | ≤ 250 |  | 
CCOP(=S)(OCC)Oc1cc(Cl)ccc1C(=O)Nc1ccc(Cl)cc1 [1t, O-{5-Chloro-2-[(4-chlorophenyl)carbamoyl]phenyl} O,O-diethyl phosphorothioate] | 32 (≈ 13.9 µg/mL) | 32 (≈ 13.9 µg/mL) | 125 (≈ 54.3 µg/mL) | 125 (≈ 54.3 µg/mL) | 32 (≈ 13.9 µg/mL) | 32 (≈ 13.9 µg/mL) | 32 (≈ 13.9 µg/mL) | 32 (≈ 13.9 µg/mL) | 62.5 (≈ 27.1 µg/mL) | 62.5 (≈ 27.1 µg/mL) | 10.8 ± 0.3 | 13.8 ± 0.05 |  | ≤ 250 |  | 
CCOP(=S)(OCC)Oc1cc(Cl)ccc1C(=O)Nc1ccc(Cl)c(Cl)c1 [1u, O-{5-Chloro-2-[(3,4-dichlorophenyl)carbamoyl]phenyl} O,O-diethyl phosphorothioate] | 16 (≈ 7.5 µg/mL) | 16 (≈ 7.5 µg/mL) | > 500 | > 500 | 32 (≈ 15 µg/mL) | 32 (≈ 15 µg/mL) | 32 (≈ 15 µg/mL) | 32 (≈ 15 µg/mL) | 62.5 (≈ 29.3 µg/mL) | 62.5 (≈ 29.3 µg/mL) | 9.56 ± 0.21 | 14.7 ± 0.2 |  |  |  | 
CCOP(=S)(OCC)Oc1cc(Cl)ccc1C(=O)Nc1cccc(Br)c1 [1v, O-{2-[(3-Bromophenyl)carbamoyl]-5-chlorophenyl} O,O-diethyl phosphorothioate] | 32 (≈ 15.3 µg/mL) | 32 (≈ 15.3 µg/mL) | 500 (≈ 239 µg/mL) | 500 (≈ 239 µg/mL) | 32 (≈ 15.3 µg/mL) | 125 (≈ 59.8 µg/mL) | 250 (≈ 120 µg/mL) | 32 (≈ 15.3 µg/mL) | 125 (≈ 59.8 µg/mL) | 250 (≈ 120 µg/mL) | 9.98 ± 0.43 | 14.9 ± 1 |  |  |  | 
CCOP(=S)(OCC)Oc1cc(Cl)ccc1C(=O)Nc1ccc(Br)cc1 [1w, O-{2-[(4-Bromophenyl)carbamoyl]-5-chlorophenyl} O,O-diethyl phosphorothioate] | 32 (≈ 15.3 µg/mL) | 32 (≈ 15.3 µg/mL) | 250 (≈ 120 µg/mL) | 250 (≈ 120 µg/mL) | 32 (≈ 15.3 µg/mL) | 32 (≈ 15.3 µg/mL) | 32 (≈ 15.3 µg/mL) | 32 (≈ 15.3 µg/mL) | 62.5 (≈ 29.9 µg/mL) | 62.5 (≈ 29.9 µg/mL) | 10.12 ± 0.08 | 16.4 ± 0.2 |  |  |  | 
CCOP(=S)(OCC)Oc1cc(Cl)ccc1C(=O)Nc1cccc(F)c1 [1x, O-{5-Chloro-2-[(3-fluorophenyl)carbamoyl]phenyl} O,O-diethyl phosphorothioate] | 16 (≈ 6.69 µg/mL) | 32 (≈ 13.4 µg/mL) | 250 (≈ 104 µg/mL) | 250 (≈ 104 µg/mL) | 32 (≈ 13.4 µg/mL) | 125 (≈ 52.2 µg/mL) | 250 (≈ 104 µg/mL) | 32 (≈ 13.4 µg/mL) | 125 (≈ 52.2 µg/mL) | 250 (≈ 104 µg/mL) | 8.04 ± 0.27 | 8.68 ± 0.54 |  |  |  | 
CCOP(=S)(OCC)Oc1cc(Cl)ccc1C(=O)Nc1ccc(F)cc1 [1y, O-{5-Chloro-2-[(4-fluorophenyl)carbamoyl]phenyl} O,O-diethyl phosphorothioate] | 32 (≈ 13.4 µg/mL) | 32 (≈ 13.4 µg/mL) | 125 (≈ 52.2 µg/mL) | 250 (≈ 104 µg/mL) | 62.5 (≈ 26.1 µg/mL) | 250 (≈ 104 µg/mL) | 500 (≈ 209 µg/mL) | 62.5 (≈ 26.1 µg/mL) | 250 (≈ 104 µg/mL) | 500 (≈ 209 µg/mL) | 11.6 ± 0.3 | 8.67 ± 0.49 |  |  |  | 
CCOP(=S)(OCC)Oc1cc(Cl)ccc1C(=O)Nc1cccc(C(F)(F)F)c1 [1z, O-(5-Chloro-2-{[3-(trifluoromethyl)phenyl]carbamoyl}phenyl) O,O-diethyl phosphorothioate] | 32 (≈ 15 µg/mL) | 62.5 (≈ 29.2 µg/mL) | 500 (≈ 234 µg/mL) | 500 (≈ 234 µg/mL) | 32 (≈ 15 µg/mL) | 125 (≈ 58.5 µg/mL) | 250 (≈ 117 µg/mL) | 62.5 (≈ 29.2 µg/mL) | 125 (≈ 58.5 µg/mL) | 125 (≈ 58.5 µg/mL) | 11.4 ± 0.3 | 15 |  |  | ≤ 250 | 
CCOP(=S)(OCC)Oc1cc(Cl)ccc1C(=O)Nc1ccc(C(F)(F)F)cc1 [1zz, O-(5-Chloro-2-{[4-(trifluoromethyl)phenyl]carbamoyl}phenyl) O,O-diethyl phosphorothioate] | 8 (≈ 3.74 µg/mL) | 16 (≈ 7.49 µg/mL) | 62.5 (≈ 29.2 µg/mL) | 62.5 (≈ 29.2 µg/mL) | 16 (≈ 7.49 µg/mL) | 16 (≈ 7.49 µg/mL) | 16 (≈ 7.49 µg/mL) | 16 (≈ 7.49 µg/mL) | 32 (≈ 15 µg/mL) | 32 (≈ 15 µg/mL) | 9.16 ± 0.17 | 18.3 ± 1 |  | ≤ 250 | ≤ 250 | ≥ 16
